A short description of this assay: Inhibition of viral neuraminidase after 20 mins by fluorescence assay.

For the molecule `C=Cc1c(C)ccc2c1C(=O)[C@H](O)[C@H]1C(C)(C)CC[C@@H](O)[C@]21C` [ASPERGILOID C], the IC50 is > 30 µM. For the molecule `COc1c(-c2ccc(O)cc2)cc(O)c(-c2ccc(O)cc2)c1O`, the IC50 is > 30 µM. With `COc1cc2oc3c(OC)c(-c4ccc(O)cc4)cc(OC)c3c2cc1OC`, the IC50 was > 30 µM. The molecule `CCOC(=O)C1=C[C@@H](OC(CC)CC)[C@H](NC(C)=O)[C@@H](N)C1` [OSELTAMIVIR] had an IC50 of 0.14 µM. With `COc1cc(-c2ccc(O)cc2)c(OC)c(O)c1C1=CC(=O)OC1CC(=O)O` (stereo unspecified) [TERPHENOLIDE], the midpoint of inhibition, the IC50, lay at 5.79 µM.

On to `COc1c(-c2ccc(O)cc2)cc(OC)c2c1oc1cc(O)c(O)cc12` [CANDIDUSIN A], for which the IC50 is > 30 µM.

As to `COc1c(-c2ccccc2)cc(O)c(-c2ccc(O)cc2)c1O`, the IC50 was > 30 µM.

In the case of `COc1cc(-c2ccc(O)cc2)c(OC)c(O)c1-c1ccc(O)cc1` [TERPHENYLLIN], the IC50 was > 30 µM. `COc1cc(-c2ccc(O)cc2)c(OC)c(O)c1-c1ccc(O)c(O)c1` displayed an IC50 of 9.17 µM. This counts as single-digit micromolar. The value for `COc1ccc(-c2cc(OC)c3c(oc4cc(O)c(O)cc43)c2OC)cc1` [CANDIDUSIN C] was > 30 µM; that for `CO[C@]12OC[C@@H](O)c3c(C)ccc(c31)C1=C(C2=O)C(C)(C)CCC1` (racemic) was > 30 µM.

In the case of `CO[C@@H]1CO[C@]2(OC)C(=O)C3=C(CCCC3(C)C)c3ccc(C)c1c32` (racemic), the IC50 is > 30 µM. The value for `C=C[C@@]1(C)CC[C@H]2C(=C[C@H](O)[C@H]3C(C)(C)CC[C@@H](O)[C@]23C)[C@H]1O` (relative stereo) was > 30 µM; that for `COc1cc(-c2ccccc2)c(OC)c(O)c1-c1ccc(O)cc1` was 4.34 µM; that for `COc1cc(-c2ccccc2)c(OC)c(O)c1-c1ccc(O)c(O)c1` was > 30 µM. In turn, `COc1c(-c2ccccc2)cc(OC)c2c1oc1cc(O)c(O)cc12` yielded an IC50 of 9.05 µM.

Source of the values: ChEMBL document CHEMBL1949607, “p-Terphenyl and diterpenoid metabolites from endophytic Aspergillus sp. YXf3” (J Nat Prod, 2012).
